This note sets out measurements from the supplement of paper PMC7021759.

± gives the standard deviation of the averaged measurements.

In this experiment the test system is SK-N-MM (SKNMM-MYCN, doxycycline-inducible MYCN). The experiment in a line: area under dose-response curve (CellTiter-Glo viability normalised to plate controls) (AUC (arbitrary units)); higher = more loss of viability; extreme values may be limits of the assay. In short, it runs like this: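 Compounds were pin-transferred as 10-point 1:3 dilution series (890-fold stock dilution) onto SK-N-MM cells with doxycycline-inducible MYCN, plated at 1250 cells/100 μL in 96-well plates and switched about 24 h after plating to medium with or without doxycycline two days before dosing. Dosing was repeated on day 4, and CellTiter-Glo luminescence was read 3 or 8 days after drugging. Area under the dose-response curve came from log2 signals normalised to the positive and negative controls on each plate.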
For orientation: Cellular ATP, detected with luciferase, serves as a proxy for viable cell number.

Setting [1] is: MYCN induction (doxycycline): +doxycycline (MYCN induced), time after drugging: 3 days.
Where [2] appears, read: MYCN induction (doxycycline): no doxycycline (MYCN not induced), time after drugging: 8 days.
Setting [3] is: MYCN induction (doxycycline): +doxycycline (MYCN induced), time after drugging: 8 days.
Where [4] appears, read: MYCN induction (doxycycline): no doxycycline (MYCN not induced), time after drugging: 3 days.

With `CO[C@H]1C[C@@H]2CC[C@@H](C)[C@@](O)(O2)C(=O)C(=O)N2CCCC[C@H]2C(=O)O[C@H]([C@H](C)C[C@@H]2CC[C@@H](OC(=O)C(C)(CO)CO)[C@H](OC)C2)CC(=O)[C@H](C)/C=C(\C)[C@@H](O)[C@@H](OC)C(=O)[C@H](C)C[C@H](C)/C=C/C=C/C=C/1C` [TEMSIROLIMUS], the “area under dose-response curve” value was found to be 8.87 ± 0.32 under setting [1] and 43.4 under setting [2].

On to `C[C@H]1[C@@H](O)O[C@@H]2O[C@@]3(C)CC[C@H]4[C@H](C)CC[C@@H]1[C@@]24OO3` [DIHYDROARTEMISININ], for which the “area under dose-response curve” value under setting [1] is 62.1, the “area under dose-response curve” value under setting [3] stood at 116, the “area under dose-response curve” value under setting [4] was found to be 37 and the “area under dose-response curve” value under setting [2] turned out to be 73.1.

With `Cc1cc(Nc2cc(N3CCN(C)CC3)nc(/C=C/c3ccccc3)n2)n[nH]1` [ENMD-2076], the “area under dose-response curve” value is, setting by setting: under setting [1], 86; under setting [3], 133; under setting [4], 0.719; under setting [2], 111.

As for `CC(C)(C#N)c1cc(Cn2cncn2)cc(C(C)(C)C#N)c1` [ANASTROZOLE], the “area under dose-response curve” value runs as follows: under setting [1], 4.86; under setting [3], 89.8; under setting [4], 0; under setting [2], 77.4.

In the case of `CN[C@H]1CN(c2ccc3c(=O)c(C(=O)O)cn(-c4nccs4)c3n2)C[C@@H]1OC` [VOSAROXIN], the “area under dose-response curve” value is 39.3 under setting [1], 92.8 under setting [3], 16.4 under setting [4] and 48.5 under setting [2].

For `Nc1nc(Cl)nc2c1ncn2[C@@H]1O[C@H](CO)[C@@H](O)[C@@H]1F` [CLOFARABINE], the “area under dose-response curve” value is, setting by setting: under setting [1], 67.5; under setting [3], 248; under setting [4], 43; under setting [2], 141.

In the case of `COC1=CC(c2cc3ccccc3[nH]2)=N/C1=C\c1[nH]c(C)cc1C` [OBATOCLAX], the “area under dose-response curve” value came to 195 under setting [1], 255 under setting [3], 178 under setting [4] and 229 under setting [2].

Consider `CC(C)n1nc(-c2ccc3oc(N)nc3c2)c2c(N)ncnc21` [INK-128], for which the “area under dose-response curve” value turned out to be 36.2 under setting [1], 38.7 under setting [3], 29.5 under setting [4] and 59.3 under setting [2].

Turning to `CNC(=O)c1ccc(N2C(=S)N(c3ccc(C#N)c(C(F)(F)F)c3)C(=O)C2(C)C)cc1F` [ENZALUTAMIDE], the “area under dose-response curve” value turned out to be 0 under setting [1], 0 under setting [3], 0 under setting [4] and 0 under setting [2].

`COc1ccc(-c2cc(=O)c3c(O)cc(O)c(-c4cc(-c5cc(=O)c6c(O)cc(O)cc6o5)ccc4OC)c3o2)cc1` [ISOGINKGETIN]: the “area under dose-response curve” value reads like this: under setting [3], 61.2; under setting [4], 15.4; under setting [2], 24.2.

With `COc1cc2nccc(Oc3ccc(NC(=O)C4(C(=O)Nc5ccc(F)cc5)CC4)cc3)c2cc1OC` [CABOZANTINIB], the “area under dose-response curve” value under setting [1] turned out to be 0, the “area under dose-response curve” value under setting [3] came to 0, the “area under dose-response curve” value under setting [4] was determined as 0 and the “area under dose-response curve” value under setting [2] came out at 0.

As for `C1=N/C2=N/c3ccc(OCCN4CCCC4)c(c3)COC/C=C/COCc3cccc(c3)C(=C1)N2` [PACRITINIB], the “area under dose-response curve” value under setting [1] is 170, the “area under dose-response curve” value under setting [3] came to 176, the “area under dose-response curve” value under setting [4] was found to be 165 and the “area under dose-response curve” value under setting [2] was found to be 198.

For the compound `CC(C)n1c(/C=C/C(O)CC(O)CC(=O)O)c(-c2ccc(F)cc2)c2ccccc21` (stereo unspecified) [FLUVASTATIN], the “area under dose-response curve” value under setting [1] stood at 2.15, the “area under dose-response curve” value under setting [3] amounted to 11, the “area under dose-response curve” value under setting [4] amounted to 0 and the “area under dose-response curve” value under setting [2] was 4.98.

For the compound `Cn1nnc2c(C(N)=O)ncn2c1=O` [TEMOZOLOMIDE], the “area under dose-response curve” value reads like this: under setting [1], 0; under setting [3], 0; under setting [4], 0.

With `Nc1nc2[nH]cc(CCc3ccc(C(=O)N[C@@H](CCC(=O)O)C(=O)O)cc3)c2c(=O)[nH]1` [PEMETREXED], the “area under dose-response curve” value came to 6.04 under setting [1], 112 under setting [3], 0 under setting [4] and 58.3 under setting [2].

In the case of `Cc1ncc(CNC(=O)N(CCCl)N=O)c(N)n1` [NIMUSTINE], the “area under dose-response curve” value is, setting by setting: under setting [1], 0; under setting [3], 0; under setting [4], 0; under setting [2], 0.

With `CON(C)C(=O)N1N=C(c2cc(F)ccc2F)S[C@@]1(CCCN)c1ccccc1` [ARRY-520], the “area under dose-response curve” value under setting [1] amounted to 218, the “area under dose-response curve” value under setting [3] came to 288, the “area under dose-response curve” value under setting [4] is 108 and the “area under dose-response curve” value under setting [2] worked out at 154.

Take `Nc1nc(F)nc2c1ncn2[C@@H]1O[C@H](COP(=O)(O)O)[C@@H](O)[C@@H]1O` [FLUDARABINE PHOSPHATE]: the “area under dose-response curve” value was found to be 0 under setting [1], 0 under setting [3], 0 under setting [4] and 57.1 under setting [2].

Regarding `O=C(O)CCCc1ccc(N(CCCl)CCCl)cc1` [CHLORAMBUCIL], the “area under dose-response curve” value was 0.922 under setting [1], 0 under setting [3], 0.476 under setting [4] and 2.34 under setting [2].

Regarding `O=C(c1cc(Cc2n[nH]c(=O)c3ccccc23)ccc1F)N1CCN(C(=O)C2CC2)CC1` [OLAPARIB], the “area under dose-response curve” value is, setting by setting: under setting [1], 9.23; under setting [3], 23.6; under setting [2], 0.

Consider `O=C(Nc1ccccc1-c1cn2c(CN3CCNCC3)csc2n1)c1cnc2ccccc2n1` [SRT1720], for which the “area under dose-response curve” value worked out at 187 under setting [1], 220 under setting [3], 0.00298 under setting [4] and 213 under setting [2].

As to `Cc1nc(=O)c2cc(CN(C)c3ccc(C(=O)N[C@@H](CCC(=O)O)C(=O)O)s3)ccc2[nH]1` [RALTITREXED], the “area under dose-response curve” value under setting [1] came out at 22.3, the “area under dose-response curve” value under setting [3] is 166, the “area under dose-response curve” value under setting [4] turned out to be 6.42 and the “area under dose-response curve” value under setting [2] came to 63.1.

In the case of `Cn1nccc1Nc1nccc(-c2ccn([C@H](CO)c3ccc(Cl)c(F)c3)c(=O)c2)n1` [GDC-0994], the “area under dose-response curve” value is 0 under setting [1], 0 under setting [3], 2.52 under setting [4] and 0 under setting [2].

Regarding `CCOc1cc2ncc(C#N)c(Nc3ccc(OCc4ccccn4)c(Cl)c3)c2cc1NC(=O)/C=C/CN(C)C` [NERATINIB], the “area under dose-response curve” value under setting [1] is 106, the “area under dose-response curve” value under setting [3] is 154, the “area under dose-response curve” value under setting [4] was 98.3 and the “area under dose-response curve” value under setting [2] is 151.

Take `CN(C)C/C=C/C(=O)Nc1ccc(C(=O)Nc2cccc(Nc3ncc(Cl)c(-c4c[nH]c5ccccc45)n3)c2)cc1` [THZ1]: the “area under dose-response curve” value was 102 under setting [1], 240 under setting [3], 51.7 under setting [4] and 190 under setting [2].

In the case of `O=P1(NCCCl)OCCCN1CCCl` (stereo unspecified) [IFOSFAMIDE], the “area under dose-response curve” value under setting [1] worked out at 0, the “area under dose-response curve” value under setting [3] came out at 0 and the “area under dose-response curve” value under setting [4] came out at 0.

For `CCC1=C[C@@H]2CN(C1)Cc1c([nH]c3ccccc13)[C@@](C(=O)OC)(c1cc3c(cc1OC)N(C)[C@H]1[C@@](O)(C(=O)OC)[C@H](OC(C)=O)[C@]4(CC)C=CCN5CC[C@]31[C@@H]54)C2` [VINORELBINE], the “area under dose-response curve” value came out at 207 under setting [1], 296 under setting [3], 99.3 under setting [4] and 144 under setting [2].

In the case of `C=C(c1ccc(C(=O)O)cc1)c1cc2c(cc1C)C(C)(C)CCC2(C)C` [BEXAROTENE], the “area under dose-response curve” value is, setting by setting: under setting [1], 4.22 ± 5.2; under setting [4], 11.9; under setting [2], 0.

On to `CCOC(=O)CCNc1cc(N2CCc3ccccc3CC2)nc(-c2ccccn2)n1` [GSK-J4], for which the “area under dose-response curve” value under setting [1] was 0.00103, the “area under dose-response curve” value under setting [3] came out at 188, the “area under dose-response curve” value under setting [4] was found to be 61.4 and the “area under dose-response curve” value under setting [2] was found to be 150.

With `CCOc1cc(C(C)(C)C)ccc1C1=N[C@@](C)(c2ccc(Cl)cc2)[C@@](C)(c2ccc(Cl)cc2)N1C(=O)N1CCN(CCCS(C)(=O)=O)CC1` [RG7112], the “area under dose-response curve” value under setting [1] amounted to 0, the “area under dose-response curve” value under setting [3] stood at 0, the “area under dose-response curve” value under setting [4] came to 0 and the “area under dose-response curve” value under setting [2] is 0.

As for `COc1cc(NCc2ccc3nc(N)nc(N)c3c2C)cc(OC)c1OC` [TRIMETREXATE], the “area under dose-response curve” value is, setting by setting: under setting [1], 27.5; under setting [3], 140; under setting [4], 18.8; under setting [2], 47.1.

For `CCC(C)n1ncn(-c2ccc(N3CCN(c4ccc(OCC5COC(Cn6cncn6)(c6ccc(Cl)cc6Cl)O5)cc4)CC3)cc2)c1=O` (stereo unspecified) [ITRACONAZOLE], the “area under dose-response curve” value is 13.1 under setting [1], 26.1 under setting [3], 11.4 under setting [4] and 26.1 under setting [2].
